{"source": "PubChem BioAssay AID1963826", "about": "(Molecular Pharmacology Branch, DTP, NCI, 2024);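 note: spheroids exposed to drugs for one week before readout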;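 for viability, T/C: percent viability relative to DMSO vehicle control wells set as 100%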", "test_system": "926638-142-R-J1-PDC complex spheroid viability", "assay": "Anticancer human tumor 926638-142-R-J1-PDC patient-derived endometrial carcinoma cell line growth inhibition [POLQ]", "details": "for IC50: curve of first compound; for viability, T/C: stronger effect = lower value", "outline": "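Three-cell-type spheroids modelling solid tumor plus stroma served as the readout system; POL inhibitors were tested individually and in combination, concentration ranges set by clinical Cmax where known.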", "key": {"[1]": {"details": "second compound 0.0316 µM, first compound 0.0316 µM"}, "[2]": {"details": "second compound 0.0316 µM, first compound 0.1 µM"}, "[3]": {"details": "second compound 0.0316 µM, first compound 0.316 µM"}, "[4]": {"details": "second compound 0.0316 µM, first compound 1 µM"}, "[5]": {"details": "second compound 0.0316 µM, first compound 3.16 µM"}, "[6]": {"details": "second compound 0.0316 µM, first compound 10 µM"}, "[7]": {"details": "second compound 0.1 µM, first compound 0.0316 µM"}, "[8]": {"details": "second compound 0.1 µM, first compound 0.1 µM"}, "[9]": {"details": "second compound 0.1 µM, first compound 0.316 µM"}, "[10]": {"details": "second compound 0.1 µM, first compound 1 µM"}, "[11]": {"details": "second compound 0.1 µM, first compound 3.16 µM"}, "[12]": {"details": "second compound 0.1 µM, first compound 10 µM"}, "[13]": {"details": "second compound 0.316 µM, first compound 0.0316 µM"}, "[14]": {"details": "second compound 0.316 µM, first compound 0.1 µM"}, "[15]": {"details": "second compound 0.316 µM, first compound 0.316 µM"}, "[16]": {"details": "second compound 0.316 µM, first compound 1 µM"}, "[17]": {"details": "second compound 0.316 µM, first compound 3.16 µM"}, "[18]": {"details": "second compound 0.316 µM, first compound 10 µM"}, "[19]": {"details": "second compound 1 µM, first compound 0.0316 µM"}, "[20]": {"details": "second compound 1 µM, first compound 0.1 µM"}, "[21]": {"details": "second compound 1 µM, first compound 0.316 µM"}, "[22]": {"details": "second compound 1 µM, first compound 1 µM"}, "[23]": {"details": "second compound 1 µM, first compound 3.16 µM"}, "[24]": {"details": "second compound 1 µM, first compound 10 µM"}, "[25]": {"details": "second compound 3.16 µM, first compound 0.0316 µM"}, "[26]": {"details": "second compound 3.16 µM, first compound 0.1 µM"}, "[27]": {"details": "second compound 3.16 µM, first compound 0.316 µM"}, "[28]": {"details": "second compound 3.16 µM, first compound 1 µM"}, "[29]": {"details": "second compound 3.16 µM, first compound 3.16 µM"}, "[30]": {"details": "second compound 3.16 µM, first compound 10 µM"}, "[31]": {"details": "second compound 10 µM, first compound 0.0316 µM"}, "[32]": {"details": "second compound 10 µM, first compound 0.1 µM"}, "[33]": {"details": "second compound 10 µM, first compound 0.316 µM"}, "[34]": {"details": "second compound 10 µM, first compound 1 µM"}, "[35]": {"details": "second compound 10 µM, first compound 3.16 µM"}, "[36]": {"details": "second compound 10 µM, first compound 10 µM"}}}
{"smiles": "O=C(Nc1ccc(O)c(NS(=O)(=O)c2ccc(F)cc2)c1)c1ccc(-c2ccccc2)cc1", "note": "+ COC1C(OC(N)=O)C(O)C(Oc2ccc3c(O)c(NC(=O)c4ccc(O)c(CC=C(C)C)c4)c(=O)oc3c2C)OC1(C)C", "values": [{"measurement": "IC50", "setting": "second compound 0.0316 µM", "result": "> 10", "unit": "µM"}, {"measurement": "IC50", "setting": "second compound 0.1 µM", "result": "> 10", "unit": "µM"}, {"measurement": "IC50", "setting": "second compound 0.316 µM", "result": "> 10", "unit": "µM"}, {"measurement": "IC50", "setting": "second compound 1 µM", "result": "> 10", "unit": "µM"}, {"measurement": "IC50", "setting": "second compound 3.16 µM", "result": "> 10", "unit": "µM"}, {"measurement": "IC50", "setting": "second compound 10 µM", "result": "> 10", "unit": "µM"}, {"measurement": "viability, T/C", "setting": "[1]", "result": 89.2, "unit": "%"}, {"measurement": "viability, T/C", "setting": "[2]", "result": 87.5, "unit": "%"}, {"measurement": "viability, T/C", "setting": "[3]", "result": 109, "unit": "%"}, {"measurement": "viability, T/C", "setting": "[4]", "result": 99.4, "unit": "%"}, {"measurement": "viability, T/C", "setting": "[5]", "result": 103, "unit": "%"}, {"measurement": "viability, T/C", "setting": "[6]", "result": 69.1, "unit": "%"}, {"measurement": "viability, T/C", "setting": "[7]", "result": 91, "unit": "%"}, {"measurement": "viability, T/C", "setting": "[8]", "result": 96.8, "unit": "%"}, {"measurement": "viability, T/C", "setting": "[9]", "result": 98.6, "unit": "%"}, {"measurement": "viability, T/C", "setting": "[10]", "result": 101, "unit": "%"}, {"measurement": "viability, T/C", "setting": "[11]", "result": 94.8, "unit": "%"}, {"measurement": "viability, T/C", "setting": "[12]", "result": 87.3, "unit": "%"}, {"measurement": "viability, T/C", "setting": "[13]", "result": 108, "unit": "%"}, {"measurement": "viability, T/C", "setting": "[14]", "result": 101, "unit": "%"}, {"measurement": "viability, T/C", "setting": "[15]", "result": 82.2, "unit": "%"}, {"measurement": "viability, T/C", "setting": "[16]", "result": 101, "unit": "%"}, {"measurement": "viability, T/C", "setting": "[17]", "result": 94.8, "unit": "%"}, {"measurement": "viability, T/C", "setting": "[18]", "result": 66, "unit": "%"}, {"measurement": "viability, T/C", "setting": "[19]", "result": 90.6, "unit": "%"}, {"measurement": "viability, T/C", "setting": "[20]", "result": 88.4, "unit": "%"}, {"measurement": "viability, T/C", "setting": "[21]", "result": 89.6, "unit": "%"}, {"measurement": "viability, T/C", "setting": "[22]", "result": 98.3, "unit": "%"}, {"measurement": "viability, T/C", "setting": "[23]", "result": 99.9, "unit": "%"}, {"measurement": "viability, T/C", "setting": "[24]", "result": 80.9, "unit": "%"}, {"measurement": "viability, T/C", "setting": "[25]", "result": 108, "unit": "%"}, {"measurement": "viability, T/C", "setting": "[26]", "result": 88.3, "unit": "%"}, {"measurement": "viability, T/C", "setting": "[27]", "result": 94.5, "unit": "%"}, {"measurement": "viability, T/C", "setting": "[28]", "result": 118, "unit": "%"}, {"measurement": "viability, T/C", "setting": "[29]", "result": 94.6, "unit": "%"}, {"measurement": "viability, T/C", "setting": "[30]", "result": 85.7, "unit": "%"}, {"measurement": "viability, T/C", "setting": "[31]", "result": 97.7, "unit": "%"}, {"measurement": "viability, T/C", "setting": "[32]", "result": 103, "unit": "%"}, {"measurement": "viability, T/C", "setting": "[33]", "result": 93.8, "unit": "%"}, {"measurement": "viability, T/C", "setting": "[34]", "result": 94.7, "unit": "%"}, {"measurement": "viability, T/C", "setting": "[35]", "result": 104, "unit": "%"}, {"measurement": "viability, T/C", "setting": "[36]", "result": 69.4, "unit": "%"}]}
{"smiles": "COc1cccc2c1C(=O)c1c(O)c3c(c(O)c1C2=O)CC(O)(C(=O)CO)CC3OC1CC(N)C(O)C(C)O1", "note": "(centres undefined) + Cc1cccc(N(C)C(=O)C2C(O)CCN2c2nc(C)cc(C(F)(F)F)c2C#N)c1", "values": [{"measurement": "IC50", "setting": "second compound 0.0316 µM", "result": 0.133, "unit": "µM"}, {"measurement": "IC50", "setting": "second compound 0.1 µM", "result": 0.144, "unit": "µM"}, {"measurement": "IC50", "setting": "second compound 0.316 µM", "result": 0.138, "unit": "µM"}, {"measurement": "IC50", "setting": "second compound 1 µM", "result": 0.102, "unit": "µM"}, {"measurement": "IC50", "setting": "second compound 3.16 µM", "result": 0.115, "unit": "µM"}, {"measurement": "IC50", "setting": "second compound 10 µM", "result": 0.124, "unit": "µM"}, {"measurement": "viability, T/C", "setting": "[1]", "result": 76.8, "unit": "%"}, {"measurement": "viability, T/C", "setting": "[2]", "result": 59.4, "unit": "%"}, {"measurement": "viability, T/C", "setting": "[3]", "result": 21, "unit": "%"}, {"measurement": "viability, T/C", "setting": "[4]", "result": 2.89, "unit": "%"}, {"measurement": "viability, T/C", "setting": "[5]", "result": 0.19, "unit": "%"}, {"measurement": "viability, T/C", "setting": "[6]", "result": 0.26, "unit": "%"}, {"measurement": "viability, T/C", "setting": "[7]", "result": 68.6, "unit": "%"}, {"measurement": "viability, T/C", "setting": "[8]", "result": 65, "unit": "%"}, {"measurement": "viability, T/C", "setting": "[9]", "result": 18.5, "unit": "%"}, {"measurement": "viability, T/C", "setting": "[10]", "result": 3.26, "unit": "%"}, {"measurement": "viability, T/C", "setting": "[11]", "result": 0.2, "unit": "%"}, {"measurement": "viability, T/C", "setting": "[12]", "result": 0.33, "unit": "%"}, {"measurement": "viability, T/C", "setting": "[13]", "result": 79.3, "unit": "%"}, {"measurement": "viability, T/C", "setting": "[14]", "result": 61.9, "unit": "%"}, {"measurement": "viability, T/C", "setting": "[15]", "result": 19, "unit": "%"}, {"measurement": "viability, T/C", "setting": "[16]", "result": 2.18, "unit": "%"}, {"measurement": "viability, T/C", "setting": "[17]", "result": 0.15, "unit": "%"}, {"measurement": "viability, T/C", "setting": "[18]", "result": 0.25, "unit": "%"}, {"measurement": "viability, T/C", "setting": "[19]", "result": 71.6, "unit": "%"}, {"measurement": "viability, T/C", "setting": "[20]", "result": 50.4, "unit": "%"}, {"measurement": "viability, T/C", "setting": "[21]", "result": 17.4, "unit": "%"}, {"measurement": "viability, T/C", "setting": "[22]", "result": 2.2, "unit": "%"}, {"measurement": "viability, T/C", "setting": "[23]", "result": 0.14, "unit": "%"}, {"measurement": "viability, T/C", "setting": "[24]", "result": 0.24, "unit": "%"}, {"measurement": "viability, T/C", "setting": "[25]", "result": 82.1, "unit": "%"}, {"measurement": "viability, T/C", "setting": "[26]", "result": 54.8, "unit": "%"}, {"measurement": "viability, T/C", "setting": "[27]", "result": 15.1, "unit": "%"}, {"measurement": "viability, T/C", "setting": "[28]", "result": 2.08, "unit": "%"}, {"measurement": "viability, T/C", "setting": "[29]", "result": 0.25, "unit": "%"}, {"measurement": "viability, T/C", "setting": "[30]", "result": 0.32, "unit": "%"}, {"measurement": "viability, T/C", "setting": "[31]", "result": 70.5, "unit": "%"}, {"measurement": "viability, T/C", "setting": "[32]", "result": 58.4, "unit": "%"}, {"measurement": "viability, T/C", "setting": "[33]", "result": 14.2, "unit": "%"}, {"measurement": "viability, T/C", "setting": "[34]", "result": 1.62, "unit": "%"}, {"measurement": "viability, T/C", "setting": "[35]", "result": 0.26, "unit": "%"}, {"measurement": "viability, T/C", "setting": "[36]", "result": 0.24, "unit": "%"}]}
